Test results from PubChem BioAssay (NCI).
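Here, GI50 denotes the concentration required for 50% inhibition of growth. TGI is the concentration that stops growth completely.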

Assays:
Test in all cases: DTP human tumour cell line panel, 384-well format
786-0 renal = test system: 786-0 renal
A498 renal = test system: A498 renal
A549 NSCLC = test system: A549 NSCLC
ACHN renal = test system: ACHN renal
BT-549 breast = test system: BT-549 breast
CAKI-1 renal = test system: CAKI-1 renal
CCRF-CEM leukemia = test system: CCRF-CEM leukemia
COLO 205 colon = test system: COLO 205 colon
DU-145 prostate = test system: DU-145 prostate
EKVX NSCLC = test system: EKVX NSCLC
HCC-2998 colon = test system: HCC-2998 colon
HCT-15 colon = test system: HCT-15 colon
HL-60(TB) leukemia = test system: HL-60(TB) leukemia
HOP-62 NSCLC = test system: HOP-62 NSCLC
HOP-92 NSCLC = test system: HOP-92 NSCLC
HS 578T breast = test system: HS 578T breast
HT29 colon = test system: HT29 colon
IGROV1 ovarian = test system: IGROV1 ovarian
K-562 leukemia = test system: K-562 leukemia
KM12 colon = test system: KM12 colon
LOX IMVI melanoma = test system: LOX IMVI melanoma
M14 melanoma = test system: M14 melanoma
MALME-3M melanoma = test system: MALME-3M melanoma
MCF7 breast = test system: MCF7 breast
MDA-MB-231 breast = test system: MDA-MB-231 breast
MDA-MB-435 melanoma = test system: MDA-MB-435 melanoma
MDA-MB-468 breast = test system: MDA-MB-468 breast
MOLT-4 leukemia = test system: MOLT-4 leukemia
NCI-H226 lung = test system: NCI-H226 lung
NCI-H23 lung = test system: NCI-H23 lung
NCI-H322M lung = test system: NCI-H322M lung
NCI-H460 NSCLC = test system: NCI-H460 NSCLC
NCI-H522 lung = test system: NCI-H522 lung
NCI/ADR-RES ovarian = test system: NCI/ADR-RES ovarian
OVCAR-3 ovarian = test system: OVCAR-3 ovarian
OVCAR-4 ovarian = test system: OVCAR-4 ovarian
OVCAR-5 ovarian = test system: OVCAR-5 ovarian
OVCAR-8 ovarian = test system: OVCAR-8 ovarian
PC-3 prostate = test system: PC-3 prostate
RPMI-8226 leukemia = test system: RPMI-8226 leukemia
RXF 393 renal = test system: RXF 393 renal
SF-268 CNS = test system: SF-268 CNS
SF-295 CNS = test system: SF-295 CNS
SF-539 CNS = test system: SF-539 CNS
SK-MEL-28 melanoma = test system: SK-MEL-28 melanoma
SK-MEL-5 melanoma = test system: SK-MEL-5 melanoma
SK-OV-3 ovarian = test system: SK-OV-3 ovarian
SN12C renal = test system: SN12C renal
SNB-19 CNS = test system: SNB-19 CNS
SNB-75 CNS = test system: SNB-75 CNS
SR leukemia = test system: SR leukemia
SW-620 colon = test system: SW-620 colon
T-47D breast = test system: T-47D breast
TK-10 renal = test system: TK-10 renal
U251 glioblastoma = test system: U251 glioblastoma
UACC-257 melanoma = test system: UACC-257 melanoma
UACC-62 melanoma = test system: UACC-62 melanoma
UO-31 renal = test system: UO-31 renal

`NC(N)=Nc1ccc(-n2nc(C(F)(F)F)cc2-c2ccc3c(ccc4ccccc43)c2)cc1` gave a GI50 ([…]-0 renal) of 1620 nM, a TGI (786-0 renal) of 2980 nM and a GI50 (A498 renal) of 1550 nM. For the same molecule, the TGI (A498 renal) was 2900 nM, the GI50 (A549 NSCLC) was 1740 nM and the TGI (A549 NSCLC) was 3.13 µM. It also gave a GI50 (ACHN renal) of 1840 nM, a TGI (ACHN renal) of 3.25 µM and a GI50 (BT-549 breast) of 1750 nM. It also gave a TGI (BT-549 breast) of 3.14 µM, a GI50 (CAKI-1 renal) of 1740 nM and a TGI (CAKI-1 renal) of 3.14 µM. It also gave a GI50 (CCRF-CEM leukemia) of 1110 nM, a TGI (CCRF-CEM leukemia) of 2310 nM and a GI50 (COLO 205 colon) of 1300 nM. For the same molecule, the TGI (COLO 205 colon) was 2580 nM, the GI50 (DU-145 prostate) was 1850 nM and the TGI (DU-145 prostate) was 3.27 µM. For the same molecule, the GI50 (EKVX NSCLC) was 1720 nM, the TGI (EKVX NSCLC) was 3.1 µM and the GI50 (HCC-2998 colon) was 736 nM. For the same molecule, the TGI (HCC-2998 colon) was 2030 nM, the GI50 (HCT-15 colon) was 1530 nM and the TGI (HCT-15 colon) was 2890 nM. For the same molecule, the GI50 (HL-60(TB) leukemia) was 838 nM, the TGI (HL-60(TB) leukemia) was 2070 nM and the GI50 (HOP-62 NSCLC) was 1770 nM. For the same molecule, the TGI (HOP-62 NSCLC) was 3.17 µM, the GI50 (HOP-92 NSCLC) was 1390 nM and the TGI (HOP-92 NSCLC) was 2700 nM. The GI50 (HS 578T breast) was 1770 nM, the TGI (HS 578T breast) was 3.16 µM and the GI50 (HT29 colon) was 1740 nM. It also gave a TGI (HT29 colon) of 3.14 µM, a GI50 (IGROV1 ovarian) of 1820 nM and a TGI (IGROV1 ovarian) of 3.23 µM. For the same molecule, the GI50 (K-562 leukemia) was 1570 nM, the TGI (K-562 leukemia) was 2920 nM and the GI50 (KM12 colon) was 1470 nM. It also gave a TGI (KM12 colon) of 2800 nM, a GI50 (LOX IMVI melanoma) of 1530 nM and a TGI (LOX IMVI melanoma) of 2870 nM. The GI50 (M14 melanoma) was 1740 nM, the TGI (M14 melanoma) was 3.14 µM and the GI50 (MALME-3M melanoma) was 1650 nM. The TGI (MALME-3M melanoma) was 3.02 µM, the GI50 (MCF7 breast) was 1250 nM and the TGI (MCF7 breast) was 2520 nM. It also gave a GI50 (MDA-MB-231 breast) of 1570 nM, a TGI (MDA-MB-231 breast) of 2930 nM and a GI50 (MDA-MB-435 melanoma) of 1850 nM. For the same molecule, the TGI (MDA-MB-435 melanoma) was 3.26 µM, the GI50 (MDA-MB-468 breast) was 2020 nM and the TGI (MDA-MB-468 breast) was 3.45 µM. It also gave a GI50 (MOLT-4 leukemia) of 1440 nM, a TGI (MOLT-4 leukemia) of 2750 nM and a GI50 (NCI-H226 lung) of 1640 nM. The TGI (NCI-H226 lung) was 3.01 µM, the GI50 (NCI-H23 lung) was 1630 nM and the TGI (NCI-H23 lung) was 2990 nM. It also gave a GI50 (NCI-H322M lung) of 1650 nM, a TGI (NCI-H322M lung) of 3.02 µM and a GI50 (NCI-H460 NSCLC) of 1690 nM. For the same molecule, the TGI (NCI-H460 NSCLC) was 3.07 µM, the GI50 (NCI-H522 lung) was 1780 nM and the TGI (NCI-H522 lung) was 3.18 µM. The GI50 (NCI/ADR-RES ovarian) was 2380 nM, the TGI (NCI/ADR-RES ovarian) was 4.83 µM and the GI50 (OVCAR-3 ovarian) was 1840 nM. The TGI (OVCAR-3 ovarian) was 3.26 µM, the GI50 (OVCAR-4 ovarian) was 1610 nM and the TGI (OVCAR-4 ovarian) was 2970 nM. For the same molecule, the GI50 (OVCAR-5 ovarian) was 1880 nM, the TGI (OVCAR-5 ovarian) was 3.29 µM and the GI50 (OVCAR-8 ovarian) was 1830 nM. The TGI (OVCAR-8 ovarian) was 3.23 µM, the GI50 (PC-3 prostate) was 1720 nM and the TGI (PC-3 prostate) was 3.11 µM. It also gave a GI50 (RPMI-8226 leukemia) of 1310 nM, a TGI (RPMI-8226 leukemia) of 2590 nM and a GI50 (RXF 393 renal) of 1590 nM. It also gave a TGI (RXF 393 renal) of 2930 nM, a GI50 (SF-268 CNS) of 1830 nM and a TGI (SF-268 CNS) of 3.24 µM. For the same molecule, the GI50 (SF-295 CNS) was 1840 nM, the TGI (SF-295 CNS) was 3.25 µM and the GI50 (SF-539 CNS) was 1860 nM. It also gave a TGI (SF-539 CNS) of 3.27 µM, a GI50 (SK-MEL-28 melanoma) of 1780 nM and a TGI (SK-MEL-28 melanoma) of 3.17 µM. It also gave a GI50 (SK-MEL-5 melanoma) of 1830 nM, a TGI (SK-MEL-5 melanoma) of 3.22 µM and a GI50 (SK-OV-3 ovarian) of 1620 nM. The TGI (SK-OV-3 ovarian) was 2980 nM, the GI50 (SN12C renal) was 1810 nM and the TGI (SN12C renal) was 3.22 µM. For the same molecule, the GI50 (SNB-19 CNS) was 1770 nM, the TGI (SNB-19 CNS) was 3.17 µM and the GI50 (SNB-75 CNS) was 1760 nM. It also gave a TGI (SNB-75 CNS) of 3.15 µM, a GI50 (SR leukemia) of 765 nM and a TGI (SR leukemia) of 2020 nM. It also gave a GI50 (SW-620 colon) of 1820 nM, a TGI (SW-620 colon) of 3.23 µM and a GI50 (T-47D breast) of 1760 nM. For the same molecule, the TGI (T-47D breast) was 3.15 µM, the GI50 (TK-10 renal) was 1810 nM and the TGI (TK-10 renal) was 3.21 µM. For the same molecule, the GI50 (U251 glioblastoma) was 1840 nM, the TGI (U251 glioblastoma) was 3.27 µM and the GI50 (UACC-257 melanoma) was 1950 nM. It also gave a TGI (UACC-257 melanoma) of 3.37 µM, a GI50 (UACC-62 melanoma) of 1740 nM and a TGI (UACC-62 melanoma) of 3.13 µM. The GI50 (UO-31 renal) was 1780 nM and the TGI (UO-31 renal) was 3.2 µM.
